The source of these data is US20250236608A1, “EGFR INHIBITORS” (Blueprint Medicines Corporation, priority 2022, published 2025).

For experiment [1], the system named is EGFR mutant NSCLC. To be noted: cited from earlier work; for objective response rate (ORR): EGFR M+ NSCLC patients treated first line (1 L).
Experiment [2] addresses EGFR (d746-750) (Homo sapiens (Human), UniProt P00533, DEL746-750). Nature of the experiment: Biochemical EGFR inhibition assay, EGFR (d746-750). To be noted: Caliper mobility shift; 1.0 mM ATP or ATP Km; read-out: Enz EGFR_Exon19-del746-750 IC50.
Experiment [3] deals with pEGFR (Tyr1068) in PC-9 cells (Ex19Del) (Homo sapiens (Human), UniProt P00533, DEL746-750). In words: PC-9 pEGFR AlphaLISA assay. The format is cell-based. To be noted: 4 hours incubation, p-EGFR (Tyr1068) AlphaLISA, read-out: Ext pEGFR_PC-9 Ex19Del IC50. In short, it runs like this: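 Readout: AlphaLISA SureFire Ultra signal in cell lysates, with acceptor beads for 1.5-2 h and donor beads overnight at room temperature in the dark. Beforehand, unstimulated cells in 10% FBS medium received compounds (10 points, 4-fold steps) for 4 h at 37° C. IC50 came from percent inhibition curves.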
On the technique in general: In Alpha technology, singlet oxygen from a donor bead excites a nearby acceptor bead.

The target of experiment [4] is EGFR L858R (Homo sapiens (Human), UniProt P00533, L858R). Nature of the experiment: Biochemical EGFR inhibition assay, EGFR L858R. To be noted: Caliper mobility shift; 1.0 mM ATP or ATP Km; read-out: Enz EGFR_L858R IC50.
Sequence of EGFR L858R (P00533 25-1210 L858R): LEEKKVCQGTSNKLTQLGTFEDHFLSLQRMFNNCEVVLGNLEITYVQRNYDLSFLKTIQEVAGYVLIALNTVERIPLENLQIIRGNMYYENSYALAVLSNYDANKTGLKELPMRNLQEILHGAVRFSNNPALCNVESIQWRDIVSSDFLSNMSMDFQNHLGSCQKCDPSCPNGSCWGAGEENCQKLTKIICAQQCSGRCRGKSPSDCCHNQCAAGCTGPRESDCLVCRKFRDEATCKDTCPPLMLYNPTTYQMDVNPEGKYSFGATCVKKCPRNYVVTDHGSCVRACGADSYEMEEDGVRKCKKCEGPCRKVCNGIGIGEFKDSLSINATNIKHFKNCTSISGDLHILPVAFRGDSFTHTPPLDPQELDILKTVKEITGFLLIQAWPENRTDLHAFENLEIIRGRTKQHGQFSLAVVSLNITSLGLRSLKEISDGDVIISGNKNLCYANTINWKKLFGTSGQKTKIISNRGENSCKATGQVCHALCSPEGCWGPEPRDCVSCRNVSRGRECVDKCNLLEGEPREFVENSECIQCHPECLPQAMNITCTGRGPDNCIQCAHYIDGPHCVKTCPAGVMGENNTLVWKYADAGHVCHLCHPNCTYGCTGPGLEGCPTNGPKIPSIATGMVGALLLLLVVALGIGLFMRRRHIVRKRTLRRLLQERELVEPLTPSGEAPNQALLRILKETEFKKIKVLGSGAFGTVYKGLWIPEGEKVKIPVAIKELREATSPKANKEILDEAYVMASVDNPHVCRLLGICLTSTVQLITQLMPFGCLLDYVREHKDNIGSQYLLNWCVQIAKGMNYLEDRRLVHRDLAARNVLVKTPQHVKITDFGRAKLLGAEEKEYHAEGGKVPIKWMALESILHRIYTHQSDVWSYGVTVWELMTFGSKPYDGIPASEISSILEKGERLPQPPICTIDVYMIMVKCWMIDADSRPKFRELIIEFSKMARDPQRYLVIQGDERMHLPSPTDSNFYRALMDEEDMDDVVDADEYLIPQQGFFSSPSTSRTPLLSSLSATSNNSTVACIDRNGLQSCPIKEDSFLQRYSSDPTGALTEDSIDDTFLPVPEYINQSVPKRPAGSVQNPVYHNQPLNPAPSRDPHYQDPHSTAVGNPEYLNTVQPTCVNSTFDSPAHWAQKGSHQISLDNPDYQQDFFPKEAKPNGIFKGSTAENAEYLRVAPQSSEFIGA

Sequence of pEGFR (Tyr1068) in PC-9 cells (Ex19Del) (P00533 other isoform, or with tags, fused parts or gaps del 746-750): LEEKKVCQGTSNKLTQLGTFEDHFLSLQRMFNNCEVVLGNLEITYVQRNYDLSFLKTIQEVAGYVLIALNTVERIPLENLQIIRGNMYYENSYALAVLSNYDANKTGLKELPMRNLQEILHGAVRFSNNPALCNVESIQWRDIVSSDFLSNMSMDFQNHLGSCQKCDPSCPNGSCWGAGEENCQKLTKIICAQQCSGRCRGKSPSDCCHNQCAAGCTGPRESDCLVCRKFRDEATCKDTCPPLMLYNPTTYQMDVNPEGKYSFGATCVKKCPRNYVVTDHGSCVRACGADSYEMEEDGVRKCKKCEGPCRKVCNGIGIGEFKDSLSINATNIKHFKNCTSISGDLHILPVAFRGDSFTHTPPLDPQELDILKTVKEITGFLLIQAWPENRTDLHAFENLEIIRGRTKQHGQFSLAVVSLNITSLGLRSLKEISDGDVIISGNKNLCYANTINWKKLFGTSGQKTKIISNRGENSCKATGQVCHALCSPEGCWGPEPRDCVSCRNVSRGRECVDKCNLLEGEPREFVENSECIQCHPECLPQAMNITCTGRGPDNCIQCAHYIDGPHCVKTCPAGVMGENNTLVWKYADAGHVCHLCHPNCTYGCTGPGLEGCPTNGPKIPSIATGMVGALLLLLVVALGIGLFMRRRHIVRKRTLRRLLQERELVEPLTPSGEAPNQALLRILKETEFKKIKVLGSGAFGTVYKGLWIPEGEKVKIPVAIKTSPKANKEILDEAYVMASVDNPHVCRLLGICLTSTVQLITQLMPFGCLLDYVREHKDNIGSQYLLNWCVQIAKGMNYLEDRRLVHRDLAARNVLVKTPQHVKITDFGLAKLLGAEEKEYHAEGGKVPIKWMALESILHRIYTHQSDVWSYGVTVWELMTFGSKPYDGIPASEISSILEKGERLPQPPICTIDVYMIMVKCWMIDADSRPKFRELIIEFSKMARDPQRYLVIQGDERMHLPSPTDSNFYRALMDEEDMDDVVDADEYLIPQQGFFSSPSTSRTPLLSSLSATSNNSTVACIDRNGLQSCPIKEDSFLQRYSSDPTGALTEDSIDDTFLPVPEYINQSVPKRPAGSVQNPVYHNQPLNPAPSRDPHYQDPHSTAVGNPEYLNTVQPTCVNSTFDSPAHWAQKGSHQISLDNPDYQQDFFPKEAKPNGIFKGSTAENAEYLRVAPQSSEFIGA
Sequence of EGFR (d746-750) (P00533 other isoform, or with tags, fused parts or gaps del 1-694/del 746-750 limits assumed): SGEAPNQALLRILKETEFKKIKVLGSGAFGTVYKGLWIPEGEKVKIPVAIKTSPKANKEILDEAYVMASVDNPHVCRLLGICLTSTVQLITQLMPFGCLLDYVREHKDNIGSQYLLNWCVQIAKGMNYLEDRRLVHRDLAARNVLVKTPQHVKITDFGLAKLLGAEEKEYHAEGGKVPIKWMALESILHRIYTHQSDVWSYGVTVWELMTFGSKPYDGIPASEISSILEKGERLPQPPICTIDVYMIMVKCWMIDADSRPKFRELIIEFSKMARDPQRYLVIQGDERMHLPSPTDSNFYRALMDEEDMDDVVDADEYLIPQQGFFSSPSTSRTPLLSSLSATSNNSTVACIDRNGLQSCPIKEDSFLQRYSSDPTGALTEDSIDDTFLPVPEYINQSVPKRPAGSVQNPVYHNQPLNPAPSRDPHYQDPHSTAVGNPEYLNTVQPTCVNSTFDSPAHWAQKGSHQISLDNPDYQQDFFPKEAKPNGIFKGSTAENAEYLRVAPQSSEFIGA

Turning to `C=CC(=O)Nc1cc(Nc2nccc(-c3cn(C)c4ccccc34)n2)c(OC)cc1N(C)CCN(C)C` [osimertinib], in experiment [1], the “objective response rate (ORR)” value is listed as 60-85%. Besides, the “progression-free survival (PFS)” value in experiment [1] (first line, NSCLC harboring del 19 and L858R mutations) is on record as 18.9 mo.
Turning to `C#Cc1cccc(Nc2ncnc3cc(OCCOC)c(OCCOC)cc23)c1` [erlotinib], the “objective response rate (ORR)” value in experiment [1] was 60-85%.
On to `CCn1cc([C@H](C)Oc2nc3c(-c4cn(C)nc4-c4ccccc4)ncnc3cc2OC)nn1` [Example 36, (S)-6-(1-(1-ethyl-1H-1,2,3-triazol-4-yl)ethoxy)-7-methoxy-4-(1-methyl-3-phenyl-1H-pyrazol-4-yl)pyrido[3,2-d]pyrimidine], for which the results for the IC50 in experiment [2], in experiment [3] and in experiment [4] were 3.2 nM, 14 nM and 9.7 nM, respectively.
`COc1cc2ncnc(-c3cn(C4CC4)nc3-c3ccccc3)c2nc1NC(=O)[C@]12C[C@H]1CN(C)C2` (single isomer, unassigned) [Example 407, (1R,5R)—N-(4-(1-cyclopropyl-3-phenyl-1H-pyrazol-4-yl)-7-methoxypyrido[3,2-d]pyrimidin-6-yl)-3-methyl-3-azabicyclo[3.1.0]hexane-1-carboxamide or (1S,5S)—N-(4-(1-cyclopropyl-3-phenyl-1H-pyrazol-4-yl)-7-methoxypyrido[3,2-d]pyrimidin-6-yl)-3-methyl-3-azabicyclo[3.1.0]hexane-1-carboxamide]: the IC50 – broadly, the concentration at which inhibition is half-maximal – in experiment [2] worked out at 0.7 nM; in experiment [3], 1.4 nM; in experiment [4], 2.1 nM.
For `COc1cc2ncnc(-c3cn(C)nc3-c3ccccc3)c2nc1NC(=O)C12CC(N(C)C)(C1)C2` [Example 404, 3-(dimethylamino)-N-(7-methoxy-4-(1-methyl-3-phenyl-1H-pyrazol-4-yl)pyrido[3,2-d]pyrimidin-6-yl)bicyclo[1.1.1]pentane-1-carboxamide], in that order: 0.7 nM, 3.6 nM and 5.9 nM.
For `COc1cc2ncnc(-c3cn(C)nc3-c3ccccc3)c2cc1NC(=O)c1ccc(F)cn1` [Example 324, 5-fluoro-N-(7-methoxy-4-(1-methyl-3-phenyl-1H-pyrazol-4-yl)quinazolin-6-yl)picolinamide], in that order: 2 nM, 2.6 nM and 3.8 nM.
For `COc1cc2ncnc(-c3cn(C)nc3-c3ccccc3)c2cc1NC(=O)[C@@H]1C[C@H]1C(F)(F)F` [Example 286, (1R,2R)—N-(7-methoxy-4-(1-methyl-3-phenyl-1H-pyrazol-4-yl)quinazolin-6-yl)-2-(trifluoromethyl)cyclopropane-1-carboxamide], in that order: 1.6 nM, 4.3 nM and 3.5 nM.
Turning to `COc1cc2ncnc(-c3cn(C)nc3-c3ccccc3)c2cc1NC(=O)C(C)(C)F` [Example 350, 2-fluoro-N-(7-methoxy-4-(1-methyl-3-phenyl-1H-pyrazol-4-yl)quinazolin-6-yl)-2-methylpropanamide], the IC50 in experiment [2] came out at 1.5 nM; in experiment [3], 4.4 nM; in experiment [4], 3.1 nM.
For `COc1cc2ncnc(-c3cn(C)nc3-c3ccc(F)cc3)c2nc1NC(=O)[C@]12CN(C)C[C@H]1C2(F)F` (single isomer, unassigned) [Example 425, (1R,5S)-6,6-difluoro-N-(4-(3-(4-fluorophenyl)-1-methyl-1H-pyrazol-4-yl)-7-methoxypyrido[3,2-d]pyrimidin-6-yl)-3-methyl-3-azabicyclo[3.1.0]hexane-1-carboxamide or (1S,5R)-6,6-difluoro-N-(4-(3-(4-fluorophenyl)-1-methyl-1H-pyrazol-4-yl)-7-methoxypyrido[3,2-d]pyrimidin-6-yl)-3-methyl-3-azabicyclo[3.1.0]hexane-1-carboxamide], in that order: 1 nM, 0.8 nM and 2.8 nM.
Take `COc1cc2ncnc(-c3cn(C)nc3-c3ccccc3)c2nc1O[C@H](C)c1cccnc1F` [Example 48, (R)-6-(1-(2-fluoropyridin-3-yl)ethoxy)-7-methoxy-4-(1-methyl-3-phenyl-1H-pyrazol-4-yl)pyrido[3,2-d]pyrimidine]: the half-maximal inhibitory concentration (IC50) in experiment [2] came to 1.4 nM; in experiment [3], 1.1 nM; in experiment [4], 1.8 nM.
As for `COc1cc2ncnc(-c3cn(C)nc3-c3ccccc3)c2nc1NC(=O)[C@]1(C(F)(F)F)CCN(C)C1` (single isomer, unassigned) [Example 395, (S)—N-(7-methoxy-4-(1-methyl-3-phenyl-1H-pyrazol-4-yl)pyrido[3,2-d]pyrimidin-6-yl)-1-methyl-3-(trifluoromethyl) pyrrolidine-3-carboxamide or (R)—N-(7-methoxy-4-(1-methyl-3-phenyl-1H-pyrazol-4-yl)pyrido[3,2-d]pyrimidin-6-yl)-1-methyl-3-(trifluoromethyl) pyrrolidine-3-carboxamide], the IC50 in experiment [2] was determined as 1.2 nM; in experiment [3], 5.3 nM; in experiment [4], 3.1 nM.
Taken in the same sequence, the figures for `CCOc1cc2ncnc(-c3cn(C)nc3-c3ccccc3F)c2nc1NC(=O)[C@@]12C[C@@H]1CN(C)C2` (single isomer, unassigned) [Example 400, (1S,5S)—N-(7-ethoxy-4-(3-(2-fluorophenyl)-1-methyl-1H-pyrazol-4-yl)pyrido[3,2-d]pyrimidin-6-yl)-3-methyl-3-azabicyclo[3.1.0]hexane-1-carboxamide or (1R,5R)—N-(7-ethoxy-4-(3-(2-fluorophenyl)-1-methyl-1H-pyrazol-4-yl)pyrido[3,2-d]pyrimidin-6-yl)-3-methyl-3-azabicyclo[3.1.0]hexane-1-carboxamide] were 1.6 nM, 2 nM and 141 nM.
Taken in the same sequence, the figures for `CCOc1cc2ncnc(-c3cn(C)nc3-c3ccccc3)c2cc1CO` [Example 99, (7-ethoxy-4-(1-methyl-3-phenyl-1H-pyrazol-4-yl)quinazolin-6-yl)methanol] were 1.1 nM, 4.2 nM and 2 nM.
